# Experiments:
# BAX and BAK = BAX and BAK activation, immunoprecipitation of active conformers; assay type: cell-based, human; details: HCT116, D54MG, SW620, EJ1 cells made polyploid with 200 nM AZD1152 72 hours, then 1 μM ABT-263
# Protocol: HCT116 cells (FIG. 11A) were treated with DMSO or 200 nM AZD1152 for 72 hours followed by 2 hours with 1 μM ABT-263. Conformationally active BAK or BAX was immunoprecipitated and detected by immunoblotting. D54MG and HCT116 cells (FIG. 11B) were treated DMSO or 200 nM AZD1152 for 72 hours prior to the addition of 1 μM ABT-263 for 4 hours. Conformationally active BAK or BAX was immunoprecipitated and detected by immunoblotting (top and middle panel). Cell lysates were also fractionated and Cytochrome C release into the cytosolic fraction was detected by immunoblotting. HCT116, SW620, and D54MG cells (FIG. 11C) were treated with DMSO (untreated) or 200 nM AZD1152 (AZD1152) for 72 hours and the expression of Bcl-2 network components were detected by immunoblotting (FIG. 11D-FIG. 11E) HCT116 cells were treated as in FIG. 11B. Endogenous Bcl-XL and Mcl-1 were immunoprecipitated, and the Bcl-2 network components in the immunecomplexes were detected by immunoblotting.
# FIG. 14 BAK and BAX activation in tumor cell lines. D54MG, SW620, and EJ1 cells were treated as in FIG. 17B. Conformationally active BAK and BAX was immunoprecipitated and detected by immunoblotting.
# Cell lysates were either prepared using a CHAPS lysis buffer (10 mM HEPES, pH 7.4, 150 mM NaCl, 1% CHAPS) or a cell extraction buffer containing 1% Triton X-100, 0.1% SDS, and 0.5% deoxycholate (Invitrogen). […]
# HCT116 cells = experiment: Caspase-3 activity in polyploid cells (Caspase-GLO 3/7); assay type: cell-based, human; details: cells made polyploid with 200 nM AZD1152 (with or without washout); 1 μM ABT-263 for 4 hours; not in diploid cells
# Protocol: Cell viability was determined 72 hours post-transfection. The red curve represents a synergistic combination. […] HCT116 cells (FIG. 10C-FIG. 10F) were treated for 24 hours with DMSO or 200 nM AZD1152. AZD1152 was then either left in the culture medium (AZD 1152) or washed out by replacing the medium with drug-free growth medium (AZD 1152 washout).
# Caspase-3 activity was determined using the Caspase-GLO 3/7 Assay (Promega) in tandem with the CellTiter-GLO viability assay (Promega). Parallel experiments were performed, where in one experiment Caspase-3/7 activity was measured and in the other, cell viability was determined. As Caspase-3/7 activity on a per cell basis reflects both the specific activity of the Caspase-3 enzyme and the number of viable cells, the data are expressed as Caspase-3/7 activity divided by cell viability.
structure (smiles),measurement,setting,value
"CC1(C)CCC(c2ccc(Cl)cc2)=C(CN2CCN(c3ccc(C(=O)NS(=O)(=O)c4ccc(N[C@H](CCN5CCOCC5)CSc5ccccc5)c(S(=O)(=O)C(F)(F)F)c4)cc3)CC2)C1 [Example 1, N-(4-(4-((2-(4-chlorophenyl)-5,5-dimethyl-1-cyclohex-1-en-1-yl)methyl)piperazin-1-yl)benzoyl)-4-(((1R)-3-(morpholin-4-yl)-1-((phenylsulfanyl)methyl)propyl)amino)-3-((trifluoromethyl)sulfonyl)benzenesulfonamide]",BAX and BAK activation in polyploid cells,BAX and BAK,rapidly and synergistically induced BAX and BAK activation
same,Caspase-3 activity in polyploid cells,HCT116 cells,induced Caspase-3 activity
